US8895695B2, “Template-fixed beta-hairpin peptidomimetics with CXCR4 antagonizing activity” (priority 2003, dated 2014)
Like-named read-outs stand apart in the source and are kept apart here. Bridge positions count the residues as written; N and C are the ends. Square brackets hold non-standard residues; d marks the D form. Peptide text beside a SMILES is read from it. * marks the point of attachment. Decanoyl(3,6,9-trioxa) = COCCOCCOCC(=O)*; 2Nal = N[C@@H](Cc1ccc2ccccc2c1)C(=O)O; Cit = NC(=O)NCCC[C@H](N)C(=O)O; Dab = NCC[C@H](N)C(=O)O; Dap = NC[C@H](N)C(=O)O

Assays:
[1] = biological target: CXCR4 (Homo sapiens, UniProt P61073); assay: Ca2+-assay method 2 (Flexstation, SDF-1 induced calcium mobilization); format: cell-based; design: expressed in transfected cells; host or cells: mouse pre-B cell line 300-19; conditions: method 2 (Ex. 54-160), mouse pre-B cell line 300-19 with human CXCR4, 10 nM SDF-1
CXCR4, sequence (P61073 whole entry): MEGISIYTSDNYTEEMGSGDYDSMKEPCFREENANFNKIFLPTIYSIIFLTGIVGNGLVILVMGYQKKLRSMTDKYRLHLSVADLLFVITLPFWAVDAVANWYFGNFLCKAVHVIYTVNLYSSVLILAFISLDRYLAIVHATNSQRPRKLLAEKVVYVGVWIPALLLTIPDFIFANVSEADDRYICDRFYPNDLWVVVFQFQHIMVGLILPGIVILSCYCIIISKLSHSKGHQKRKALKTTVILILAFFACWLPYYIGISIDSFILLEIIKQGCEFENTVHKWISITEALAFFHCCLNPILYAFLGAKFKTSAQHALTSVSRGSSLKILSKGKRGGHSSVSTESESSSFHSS
Method: 2.2. Ca^2+-Assay: CXCR4-Antagonizing Activity of the Peptides.
The cells were batch loaded with the Calcium 3 Assay kit (Molecular Devices) in assay buffer (Hanks Balanced salt solution, HBSS, 20 mM HEPES, pH 7.4, 0.1% BSA) for 1 h at room temperature and then 200,000 labeled cells were dispensed into black 96 well assays plates (Costar No. 3603). A 20-fold concentrated solution of peptide in assay buffer was added to the cells and the whole plate was centrifuged to settle the cells to the bottom of the wells. Calcium mobilization induced by 10 nM stromal-derived factor-1 (SDF-1) was measured in the Flexstation 384 (excitation, 485 nM; emission, 525 nM) for 90 seconds. A maximal change in fluorescence response above baseline was used to calculate antagonist activity. The data for dose response curves (antagonist concentration versus % maximum response) were fitted to a four parameter logistic equation using SoftmaxPro 4.6 (Molecular Devices), from which IC50% values were calculated.

[2] = in vitro; conditions: human
[3] = system: human red blood cells (hRBC); assay: Hemolysis; format: cell-based
Method: The peptides were tested for their hemolytic activity against human red blood cells (hRBC). Fresh hRBC were washed three times with phosphate buffered saline (PBS) by centrifugation for 10 min at 2000×g. Peptides at a concentration of 100 μM were incubated with 20% v/v hRBC for 1 hour at 37° C. The final erythrocyte concentration was approximately 0.9×10^9 cells per ml. A value of 0% resp. 100% cell lysis was determined by incubation of the hRBC in the presence of PBS alone and respectively 0.1% Triton X-100 in H2O. The samples were centrifuged and the supernatant was 20-fold diluted in PBS buffer and the optical density (OD) of the sample at […] was measured. The 100% lyses value (OD540H2O) gave an OD540 of approximately 1.3-1.8. Percent hemolysis was calculated as follows: (OD540peptide/OD540H2O)×100%.

[4] = read-out: IC50 (nM) Ca^2+ assay
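For GI50 in this document: MTT reduction read as absorbance at 595 nm, blank-corrected and expressed as percent growth relative to the time-zero cell reading, triplicate wells per concentration.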

| Structure (SMILES) | IC50 ([1]; IC50 (nM) Ca^2+ assay) [nM] | IC50 [1, 4] [nM] | GI50 at 48 h [2] [nM] | Hemolysis at 100 μM [3] [%] |
| --- | --- | --- | --- | --- |
| N=C(N)NCCC[C@@H]1NC(=O)[C@@H]2CSSC[C@H](NC(=O)[C@H](Cc3c[nH]c4ccccc34)NC(=O)[C@H](CCCNC(=N)N)NC(=O)[C@H](CCCNC(=N)N)NC(=O)[C@H]3CCCN3C(=O)CNC1=O)C(=O)N[C@@H](Cc1ccc(O)cc1)C(=O)N[C@@H](CCCNC(=N)N)C(=O)N[C@@H](CCCCN)C(=O)N[C@H]1CSSC[C@H](NC(=O)[C@H](Cc3ccc(O)cc3)NC(=O)CNC(=O)[C@H](CCCCN)NC(=O)[C@H](Cc3ccc(O)cc3)NC1=O)C(=O)N[C@@H](Cc1ccc(O)cc1)C(=O)N[C@@H](CCCNC(=N)N)C(=O)N[C@@H](CCCCN)C(=O)N2 [Ex. 160] (cyclo(CRG[dP]RRWCYRKCYKGYCYRK); disulfide 1-8, 12-17) | 0.38 |  |  |  |
| N=C(N)NCCC[C@@H]1NC(=O)[C@@H]2CSSC[C@H](NC(=O)[C@H](Cc3ccc4ccccc4c3)NC(=O)[C@H](CCCNC(=N)N)NC(=O)[C@H](CCCNC(=N)N)NC(=O)[C@H]3CCCN3C(=O)CNC1=O)C(=O)N[C@@H](Cc1ccc(O)cc1)C(=O)N[C@@H](CCCNC(N)=O)C(=O)N[C@@H](CCCCN)C(=O)N[C@H]1CSSC[C@H](NC(=O)[C@H](Cc3ccc(O)cc3)NC(=O)CNC(=O)[C@H](CCCCN)NC(=O)[C@H](Cc3ccc(O)cc3)NC1=O)C(=O)N[C@@H](Cc1ccc(O)cc1)C(=O)N[C@@H](CCCNC(=N)N)C(=O)N[C@@H](CCCNC(N)=O)C(=O)N2 [Ex. 154] (cyclo([2Nal]CY[Cit]KCYKGYCYR[Cit]CRG[dP]RR); disulfide 2-15, 6-11) | 9.3 |  |  |  |
| C[C@@H](O)[C@@H]1NC(=O)[C@H](CCCNC(=N)N)NC(=O)[C@H](Cc2ccc(O)cc2)NC(=O)[C@@H]2CCCN2C(=O)[C@H]2CCCN2C(=O)[C@H](CCCCN)NC(=O)[C@H](CCCNC(N)=O)NC(=O)[C@H](Cc2ccc(O)cc2)NC(=O)[C@@H]2CSSC[C@H](NC1=O)C(=O)N[C@@H](CCCNC(=N)N)C(=O)NCC(=O)N1CCC[C@@H]1C(=O)N[C@@H](CCCNC(=N)N)C(=O)N[C@@H](CCCNC(=N)N)C(=O)N[C@@H](Cc1ccc(O)cc1)C(=O)N2 [Ex. 146] (cyclo(YRTCRG[dP]RRYCY[Cit]K[dP]P); disulfide 4-11) |  | 0.24 |  |  |
| CC(C)C[C@@H]1NC(=O)[C@@H]2CCCN2C(=O)[C@H]2CCCN2C(=O)[C@H](CCCCN)NC(=O)[C@H](CCC(N)=O)NC(=O)[C@H](Cc2ccc(O)cc2)NC(=O)[C@@H]2CSSC[C@H](NC(=O)[C@H](CCCNC(N)=O)NC(=O)[C@H](CCCNC(=N)N)NC1=O)C(=O)N[C@@H](CCCNC(=N)N)C(=O)NCC(=O)N1CCC[C@@H]1C(=O)N[C@@H](CCCNC(=N)N)C(=O)N[C@@H](CCCNC(=N)N)C(=O)N[C@@H](Cc1ccc3ccccc3c1)C(=O)N2 [Ex. 144] (cyclo(LR[Cit]CRG[dP]RR[2Nal]CYQK[dP]P); disulfide 4-11) |  | 0.18 |  |  |
| C[C@@H](O)[C@@H]1NC(=O)[C@H]2CCCN2C(=O)CNC(=O)[C@H](CCCNC(=N)N)NC(=O)[C@@H]2CSSC[C@H](NC(=O)[C@H](Cc3ccc4ccccc4c3)NC(=O)[C@H](CCCNC(=N)N)NC1=O)C(=O)N[C@@H](Cc1ccc(O)cc1)C(=O)N[C@@H](CCC(N)=O)C(=O)N[C@@H](CCCCN)C(=O)N1CCC[C@@H]1C(=O)N1CCC[C@H]1C(=O)N[C@@H](Cc1ccc(O)cc1)C(=O)N[C@@H](CCCNC(=N)N)C(=O)N[C@@H](CCCNC(N)=O)C(=O)N2 [Ex. 56] (cyclo(YR[Cit]CRG[dP]TR[2Nal]CYQK[dP]P); disulfide 4-11) |  | 0.74 | 60000 |  |
| N=C(N)NCCC[C@@H]1NC(=O)[C@@H]2CSSC[C@H](NC(=O)[C@H](Cc3ccc4ccccc4c3)NC(=O)[C@H](CCCNC(=N)N)NC(=O)[C@H](CN)NC(=O)[C@H]3CCCN3C(=O)CNC1=O)C(=O)N[C@@H](Cc1ccc(O)cc1)C(=O)N[C@@H](CCCNC(N)=O)C(=O)N[C@@H](CCCCN)C(=O)N1CCC[C@@H]1C(=O)N1CCC[C@H]1C(=O)N[C@@H](Cc1ccc(O)cc1)C(=O)N[C@@H](CCCNC(=N)N)C(=O)N[C@@H](CCCNC(N)=O)C(=O)N2 [Ex. 135] (cyclo(YR[Cit]CRG[dP][Dap]R[2Nal]CY[Cit]K[dP]P); disulfide 4-11) |  |  | 30000 | 0.1 |
| N=C(N)NCCC[C@@H]1NC(=O)[C@@H]2CSSC[C@H](NC(=O)[C@H](Cc3c[nH]c4ccccc34)NC(=O)[C@H](CCCNC(=N)N)NC(=O)[C@H](CCCNC(=N)N)NC(=O)[C@H]3CCCN3C(=O)CNC1=O)C(=O)N[C@@H](Cc1ccc(O)cc1)C(=O)N[C@@H](CCCNC(N)=O)C(=O)N[C@@H](CCCCN)C(=O)N1CCC[C@@H]1C(=O)N1CCC[C@H]1C(=O)N[C@@H](Cc1ccc(O)cc1)C(=O)N[C@@H](CCCNC(=N)N)C(=O)N[C@@H](CCCNC(N)=O)C(=O)N2 [Ex. 128] (cyclo(YR[Cit]CRG[dP]RRWCY[Cit]K[dP]P); disulfide 4-11) |  | 4.5 |  |  |
| N=C(N)NCCC[C@@H]1NC(=O)[C@@H]2CSSC[C@H](NC(=O)[C@H](Cc3ccc4ccccc4c3)NC(=O)[C@H](CCCNC(=N)N)NC(=O)[C@H](CCCNC(=N)N)NC(=O)[C@H]3CCCN3C(=O)CNC1=O)C(=O)N[C@@H](Cc1ccc(O)cc1)C(=O)N[C@@H](CCC(N)=O)C(=O)N[C@@H](CCCCN)C(=O)N1CCC[C@@H]1C(=O)N1CCC[C@H]1C(=O)N[C@@H](Cc1ccc(O)cc1)C(=O)N[C@@H](CCCNC(=N)N)C(=O)N[C@@H](CCCNC(N)=O)C(=O)N2 [Ex. 115] (cyclo(RR[2Nal]CYQK[dP]PYR[Cit]CRG[dP]); disulfide 4-13) |  | 2.7 |  | 0.1 |
| N=C(N)NCCC[C@@H]1NC(=O)[C@H](CCCNC(=N)N)NC(=O)[C@H]2CCCN2C(=O)CNC(=O)[C@H](CCN)NC(=O)[C@@H]2CSSC[C@H](NC(=O)[C@H](Cc3c[nH]c4ccccc34)NC1=O)C(=O)N[C@@H](Cc1ccc(O)cc1)C(=O)N[C@@H](CCC(N)=O)C(=O)N[C@@H](CCCCN)C(=O)N1CCC[C@@H]1C(=O)N1CCC[C@H]1C(=O)N[C@@H](Cc1ccc(O)cc1)C(=O)N[C@@H](CCCNC(=N)N)C(=O)N[C@@H](CCCNC(N)=O)C(=O)N2 [Ex. 111] (cyclo(YR[Cit]C[Dab]G[dP]RRWCYQK[dP]P); disulfide 4-11) |  |  | > 100000 | 0 |
| N=C(N)NCCC[C@@H]1NC(=O)[C@@H]2CSSC[C@H](NC(=O)[C@H](Cc3c[nH]c4ccccc34)NC(=O)[C@H](CCCNC(=N)N)NC(=O)[C@H](CCCNC(=N)N)NC(=O)[C@H]3CCCN3C(=O)CNC1=O)C(=O)N[C@@H](Cc1ccc(O)cc1)C(=O)N[C@@H](CCC(N)=O)C(=O)N[C@@H](CCCCN)C(=O)N[C@H]1CSSC[C@H](NC(=O)[C@H](Cc3ccc(O)cc3)NC(=O)CNC(=O)[C@H](CCCCN)NC(=O)[C@H](Cc3ccc(O)cc3)NC1=O)C(=O)N[C@@H](Cc1ccc(O)cc1)C(=O)N[C@@H](CCCNC(=N)N)C(=O)N[C@@H](CCCNC(N)=O)C(=O)N2 [Ex. 155] (cyclo(CRG[dP]RRWCYQKCYKGYCYR[Cit]); disulfide 1-8, 12-17) | 0.46 |  |  |  |
| C[C@@H]1NC(=O)[C@H](CCCNC(=N)N)NC(=O)[C@@H]2CSSC[C@H](NC(=O)[C@H](Cc3c[nH]c4ccccc34)NC(=O)[C@H](CCCNC(=N)N)NC(=O)[C@H](CCCNC(=N)N)NC(=O)[C@H]3CCCN3C1=O)C(=O)N[C@@H](Cc1ccc(O)cc1)C(=O)N[C@@H](CCCNC(N)=O)C(=O)N[C@@H](CCCCN)C(=O)N1CCC[C@@H]1C(=O)N1CCC[C@H]1C(=O)N[C@@H](Cc1ccc(O)cc1)C(=O)N[C@@H](CCCNC(=N)N)C(=O)N[C@@H](CCCNC(N)=O)C(=O)N2 [Ex. 143] (cyclo(YR[Cit]CRA[dP]RRWCY[Cit]K[dP]P); disulfide 4-11) |  | 0.9 | 46000 |  |
| N=C(N)NCCC[C@@H]1NC(=O)[C@@H]2CSSC[C@H](NC(=O)[C@H](Cc3ccc4ccccc4c3)NC(=O)[C@H](CCCNC(=N)N)NC(=O)[C@H](CCCNC(=N)N)NC(=O)[C@H]3CCCN3C(=O)CNC1=O)C(=O)N[C@@H](Cc1ccc(O)cc1)C(=O)N[C@@H](CCC(N)=O)C(=O)N[C@@H](CCCCN)C(=O)N1CCC[C@@H]1C(=O)N1CCC[C@H]1C(=O)N[C@@H](Cc1ccc(O)cc1)C(=O)N[C@@H](CCCNC(=N)N)C(=O)N[C@@H](CCCNC(N)=O)C(=O)N2 [Ex. 132] (cyclo(RR[2Nal]CYQK[dP]PYR[Cit]CRG[dP]); disulfide 4-13) |  |  | 76000 | 0 |
| COCCOCCOCC(=O)NCC[C@@H]1NC(=O)[C@H]2CCCN2C(=O)CNC(=O)[C@H](CCCNC(=N)N)NC(=O)[C@@H]2CSSC[C@H](NC(=O)[C@H](Cc3c[nH]c4ccccc34)NC(=O)[C@H](CCCNC(=N)N)NC1=O)C(=O)N[C@@H](Cc1ccc(O)cc1)C(=O)N[C@@H](CCCNC(N)=O)C(=O)N[C@@H](CCCCN)C(=O)N1CCC[C@@H]1C(=O)N1CCC[C@H]1C(=O)N[C@@H](Cc1ccc(O)cc1)C(=O)N[C@@H](CCCNC(=N)N)C(=O)N[C@@H](CCCNC(N)=O)C(=O)N2 [Ex. 142] (cyclo(YR[Cit]CRG[dP][Dab](Decanoyl(3,6,9-trioxa))RWCY[Cit]K[dP]P); disulfide 4-11) | 96.9 |  |  |  |
